Measurements reported in ChEMBL document CHEMBL1201862, “PubChem BioAssay data set” (2004).
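Each compound was tested at five concentrations against cells in 96-well plates for 48 hours. Abbreviation: GI50, concentration required for 50% inhibition of growth.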 Active and inactive are the calls of the source. No stated cut-off is given here; in the data, active = GI50 up to about 1.1 µM and inactive = higher.

Tests used:
Assay in all cases: NCI tumour cell line growth inhibition, 48 h
NCI/ADR-RES = test system: NCI/ADR-RES
OVCAR-4 = test system: OVCAR-4
LOX IMVI = test system: LOX IMVI
SK-OV-3 = test system: SK-OV-3
KM12 = test system: KM12
K562 = test system: K562
OVCAR-3 = test system: OVCAR-3
786-0 = test system: 786-0
SNB-19 = test system: SNB-19
MDA-MB-231 = test system: MDA-MB-231
Malme-3M = test system: Malme-3M
MOLT-4 = test system: MOLT-4
T47D = test system: T47D
SK-MEL-5 = test system: SK-MEL-5
U-251 = test system: U-251
SR = test system: SR
TK-10 = test system: TK-10
A549 = test system: A549
CAKI-1 = test system: CAKI-1
HOP-62 = test system: HOP-62
HCT-15 = test system: HCT-15
HCT-116 = test system: HCT-116
DU-145 = test system: DU-145
BT-549 = test system: BT-549
COLO 205 = test system: COLO 205
MDA-N = test system: MDA-N
RPMI-8226 = test system: RPMI-8226
MCF7 = test system: MCF7
ACHN = test system: ACHN
SF-268 = test system: SF-268
SN12C = test system: SN12C
HCC 2998 = test system: HCC 2998
UACC-257 = test system: UACC-257
SK-MEL-28 = test system: SK-MEL-28
MDA-MB-435 = test system: MDA-MB-435
SF-539 = test system: SF-539
SNB-75 = test system: SNB-75
CCRF-CEM = test system: CCRF-CEM
UACC-62 = test system: UACC-62
NCI-H226 = test system: NCI-H226
SF-295 = test system: SF-295
RXF 393 = test system: RXF 393
OVCAR-8 = test system: OVCAR-8
Hs-578T = test system: Hs-578T
SK-MEL-2 = test system: SK-MEL-2
PC-3 = test system: PC-3
NCI-H23 = test system: NCI-H23
EKVX = test system: EKVX
HOP-92 = test system: HOP-92
IGROV-1 = test system: IGROV-1
HL-60 = test system: HL-60
SW-620 = test system: SW-620
M14 = test system: M14
UO-31 = test system: UO-31
OVCAR-5 = test system: OVCAR-5
HT-29 = test system: HT-29
NCI-H460 = test system: NCI-H460
A498 = test system: A498

CC(C)(C)NC1=NC(C(F)(F)F)(C(F)(F)F)NC(=O)N1
GI50 (NCI/ADR-RES): 61 µM (inactive)
GI50 (OVCAR-4): 36.3 µM (inactive)
GI50 (LOX IMVI): 53 µM (inactive)
GI50 (SK-OV-3): > 100 µM (inactive)
GI50 (KM12): 68.4 µM (inactive)
GI50 (K562): 30.7 µM (inactive)
GI50 (OVCAR-3): 77.4 µM (inactive)
GI50 (786-0): 52.4 µM (inactive)
GI50 (SNB-19): 67.3 µM (inactive)
GI50 (MDA-MB-231): 77.1 µM (inactive)
GI50 (Malme-3M): 34.4 µM (inactive)
GI50 (MOLT-4): 30.2 µM (inactive)
GI50 (T47D): 28.3 µM (inactive)
GI50 (SK-MEL-5): 24.8 µM (inactive)
GI50 (U-251): 70.3 µM (inactive)
GI50 (SR): 37 µM (inactive)
GI50 (TK-10): 67.8 µM (inactive)
GI50 (A549): 35.1 µM (inactive)
GI50 (CAKI-1): 46.1 µM (inactive)
GI50 (HOP-62): > 100 µM (inactive)
GI50 (HCT-15): 57 µM
GI50 (HCT-116): 38.9 µM (inactive)
GI50 (DU-145): > 100 µM (inactive)
GI50 (BT-549): 16.9 µM (inactive)
GI50 (COLO 205): > 10 µM (inactive)
GI50 (MDA-N): 49.2 µM (inactive)
GI50 (RPMI-8226): 36.9 µM (inactive)
GI50 (MCF7): 37.8 µM (inactive)
GI50 (ACHN): 39.7 µM (inactive)
GI50 (SF-268): > 100 µM (inactive)
GI50 (SN12C): 54.7 µM (inactive)
GI50 (HCC 2998): 27.4 µM (inactive)
GI50 (UACC-257): 54.2 µM (inactive)
GI50 (SK-MEL-28): 32.7 µM (inactive)
GI50 (MDA-MB-435): 37.1 µM (inactive)
GI50 (SF-539): > 100 µM (inactive)
GI50 (SNB-75): 75.2 µM (inactive)
GI50 (CCRF-CEM): 31.2 µM (inactive)
GI50 (UACC-62): 54.6 µM (inactive)
GI50 (NCI-H226): > 100 µM (inactive)
GI50 (SF-295): 39.7 µM (inactive)
GI50 (RXF 393): > 100 µM (inactive)
GI50 (OVCAR-8): 80.4 µM (inactive)
GI50 (Hs-578T): 58.2 µM (inactive)
GI50 (SK-MEL-2): 65.2 µM (inactive)
GI50 (PC-3): 34.8 µM (inactive)
GI50 (NCI-H23): > 100 µM (inactive)
GI50 (EKVX): 84.1 µM (inactive)
GI50 (HOP-92): 20 µM (inactive)
GI50 (IGROV-1): 64.1 µM (inactive)
GI50 (HL-60): 16.5 µM (inactive)
GI50 (SW-620): > 100 µM (inactive)
GI50 (M14): 44.5 µM (inactive)
GI50 (UO-31): 53.6 µM (inactive)
GI50 (OVCAR-5): > 100 µM (inactive)
GI50 (HT-29): 36.9 µM (inactive)
GI50 (NCI-H460): 47.4 µM (inactive)

CC(C)OC(=O)Nc1cccc(Cl)c1 [CHLORPROPHAM]
GI50 (NCI/ADR-RES): 91.4 µM (inactive)
GI50 (OVCAR-4): > 100 µM (inactive)
GI50 (LOX IMVI): > 100 µM (inactive)
GI50 (SK-OV-3): > 100 µM (inactive)
GI50 (KM12): 70.1 µM (inactive)
GI50 (K562): 89.9 µM (inactive)
GI50 (OVCAR-3): > 100 µM (inactive)
GI50 (786-0): > 100 µM (inactive)
GI50 (SNB-19): > 100 µM (inactive)
GI50 (MDA-MB-231): > 100 µM (inactive)
GI50 (MOLT-4): > 100 µM (inactive)
GI50 (T47D): 50.4 µM (inactive)
GI50 (SK-MEL-5): > 100 µM (inactive)
GI50 (U-251): 87.1 µM (inactive)
GI50 (SR): > 100 µM (inactive)
GI50 (TK-10): > 100 µM (inactive)
GI50 (A549): > 100 µM (inactive)
GI50 (CAKI-1): > 100 µM (inactive)
GI50 (HOP-62): > 100 µM (inactive)
GI50 (HCT-15): 83.6 µM
GI50 (HCT-116): > 100 µM (inactive)
GI50 (DU-145): > 100 µM (inactive)
GI50 (BT-549): 87.7 µM (inactive)
GI50 (COLO 205): > 100 µM (inactive)
GI50 (MDA-N): > 100 µM (inactive)
GI50 (RPMI-8226): > 100 µM (inactive)
GI50 (MCF7): > 100 µM (inactive)
GI50 (ACHN): > 100 µM (inactive)
GI50 (SF-268): > 100 µM (inactive)
GI50 (SN12C): > 100 µM (inactive)
GI50 (HCC 2998): > 100 µM (inactive)
GI50 (UACC-257): > 100 µM (inactive)
GI50 (SK-MEL-28): > 100 µM (inactive)
GI50 (MDA-MB-435): > 100 µM (inactive)
GI50 (SF-539): > 100 µM (inactive)
GI50 (SNB-75): 40.7 µM (inactive)
GI50 (CCRF-CEM): > 100 µM (inactive)
GI50 (UACC-62): > 100 µM (inactive)
GI50 (NCI-H226): > 100 µM (inactive)
GI50 (SF-295): > 100 µM (inactive)
GI50 (RXF 393): > 100 µM (inactive)
GI50 (OVCAR-8): > 100 µM (inactive)
GI50 (Hs-578T): > 100 µM (inactive)
GI50 (SK-MEL-2): > 100 µM (inactive)
GI50 (PC-3): 94.4 µM (inactive)
GI50 (NCI-H23): > 100 µM (inactive)
GI50 (EKVX): 63.1 µM (inactive)
GI50 (HOP-92): > 100 µM (inactive)
GI50 (IGROV-1): > 100 µM (inactive)
GI50 (HL-60): > 100 µM (inactive)
GI50 (SW-620): > 100 µM (inactive)
GI50 (M14): > 100 µM (inactive)
GI50 (UO-31): > 100 µM (inactive)
GI50 (OVCAR-5): > 100 µM (inactive)
GI50 (HT-29): 87.7 µM (inactive)
GI50 (NCI-H460): 76.4 µM (inactive)

C=C[C@]1(O[Si](C)(C)C)C[C@@]2(C(=O)OCC)C(O)C(=O)N3CCc4cc(OC)c(OC)cc4[C@]312 (some centres undefined)
GI50 (NCI/ADR-RES): > 100 µM (inactive)
GI50 (OVCAR-4): > 100 µM (inactive)
GI50 (LOX IMVI): > 100 µM (inactive)
GI50 (SK-OV-3): > 100 µM (inactive)
GI50 (KM12): > 100 µM (inactive)
GI50 (K562): > 100 µM (inactive)
GI50 (OVCAR-3): > 100 µM (inactive)
GI50 (786-0): > 100 µM (inactive)
GI50 (SNB-19): > 100 µM (inactive)
GI50 (MDA-MB-231): > 100 µM (inactive)
GI50 (Malme-3M): > 100 µM (inactive)
GI50 (MOLT-4): > 100 µM (inactive)
GI50 (T47D): > 100 µM (inactive)
GI50 (SK-MEL-5): 44.7 µM (inactive)
GI50 (U-251): > 100 µM (inactive)
GI50 (SR): > 100 µM (inactive)
GI50 (TK-10): > 100 µM (inactive)
GI50 (A549): > 100 µM (inactive)
GI50 (CAKI-1): > 100 µM (inactive)
GI50 (HOP-62): > 100 µM (inactive)
GI50 (HCT-15): > 100 µM
GI50 (HCT-116): > 100 µM (inactive)
GI50 (DU-145): > 100 µM (inactive)
GI50 (BT-549): > 100 µM (inactive)
GI50 (COLO 205): > 100 µM (inactive)
GI50 (MDA-N): > 100 µM (inactive)
GI50 (RPMI-8226): 61.1 µM (inactive)
GI50 (MCF7): 90.8 µM (inactive)
GI50 (ACHN): > 100 µM (inactive)
GI50 (SF-268): > 100 µM (inactive)
GI50 (SN12C): > 100 µM (inactive)
GI50 (UACC-257): > 100 µM (inactive)
GI50 (SK-MEL-28): > 100 µM (inactive)
GI50 (MDA-MB-435): > 100 µM (inactive)
GI50 (SF-539): > 100 µM (inactive)
GI50 (SNB-75): > 100 µM (inactive)
GI50 (CCRF-CEM): > 100 µM (inactive)
GI50 (UACC-62): 21.4 µM (inactive)
GI50 (NCI-H226): > 100 µM (inactive)
GI50 (SF-295): > 100 µM (inactive)
GI50 (RXF 393): > 100 µM (inactive)
GI50 (OVCAR-8): > 100 µM (inactive)
GI50 (Hs-578T): 31.3 µM (inactive)
GI50 (SK-MEL-2): > 100 µM (inactive)
GI50 (PC-3): 93.8 µM (inactive)
GI50 (NCI-H23): > 100 µM (inactive)
GI50 (EKVX): > 100 µM (inactive)
GI50 (HOP-92): 24.9 µM (inactive)
GI50 (IGROV-1): > 100 µM (inactive)
GI50 (SW-620): > 100 µM (inactive)
GI50 (A498): 40.9 µM (inactive)
GI50 (M14): > 100 µM (inactive)
GI50 (UO-31): > 100 µM (inactive)
GI50 (OVCAR-5): > 100 µM (inactive)
GI50 (HT-29): > 100 µM (inactive)
GI50 (NCI-H460): > 100 µM (inactive)
